# According to US20160256481A1, “USE OF WATER SOLUBLE PLATINUM COMPLEX IN PREPARING DRUGS FOR PREVENTION AND TREATMENT OF CANCERS” (GUDUI BIOPHARMA TECHNOLOGY INC., priority 2011, published 2016):
# How the values were obtained:
# [1] = tested on: L1210 tumor cells; assay: Antitumor efficacy in L1210 tumor-bearing CDF1 mice (increase in life span); assay type: in vivo; settings: for Survived Animals on Day 42: 6 per group; for Weight Changes: from the first day to the seventh day
# Protocol: In the following test, antitumor efficacy studies were performed using 8-9 weeks old female CDF1 mice, the average weight of the animal is 20-25 grams. L1210 tumor cells (about 10^5 cells per mouse) were inoculated intraperitoneally. The water-soluble platinum complexes were used to treat the tumor-bearing animals and the efficacy was compared compared with the clinical platinum antitumor drugs. […] Drugs were administered intraperitoneally on day 1 and day 4 after tumor cell transplantation. The number of experimental animals in each group was 6.
# The experimental animals were purchased from Vital River Laboratory Animal Technology Co. Ltd., Tumor cells L1210-leukemia cells were purchased from Shanghai An Yan Commercial Trade Co. Ltd.
# The increase in life span (ILS) is calculated as follows:
# Wherein, St=the weighted median survival time of treated animals; Su=the weighted median survival time of untreated animals
# [2] = cited from earlier work
# [3] = tested on: A549-human non-small cell lung cancer (adenocarcinoma); assay: MTS cytotoxicity assay (IC50); assay type: cell-based; settings: A549, 96 h, read-out: IC50 value in human tumor cells A549
# Protocol: (§1) Containing 10% bovine fetal serum, 1 mM of sodium pyruvate, 2 mM of L-glutamine, 50 U/mL of penicillin, 50 μg/mL of streptomycin
# (§2) Human tumor cells: du145-human prostate cancer; MCF-7-human breast cancer; SK0V3-human ovarian carcinoma, HT-29-human colon cancer; A549-human non-small cell lung cancer (adenocarcinoma), H460-human non-small cell lung cancer (large cell carcinoma), and animal tumor cells: L 1210-mice leukemia cells used in the following activity test experiments were all purchased from Shanghai An Yan Commercial Trade Co., Ltd.
# (§3) MTS test method was used in cytotoxicity assay. The tumor cells of logarithmic phase were collected, and then the concentration of cell suspension was adjusted, 100 μL of the cell suspension was added to each well, the cells were placed at 1000-10000 cells/well (edge well filled with sterile PBS). Cells were incubated at 37° C. with 5% CO2 to make cell monolayer overspread the bottom of each well (96-well flat-bottomed microplate). 100 μL of different concentrations of the test compounds was added to each well. Each condition was measured in five replicates. The microplate was incubated at 37° C. with 5% CO2 for 96 h and checked with inverted microscope. MTS working reagent: To 2 mL of MTS (2 mg/mL, prepared by DPBS) was added 100 μL of PMS (1 mg/mL, prepared by DPBS). The cell culture medium was discarded after centrifugation, the cell culture plate was carefully washed 2-3 times with PBS. Before detecting the absorbance value (OD), to each sample containing well was added 100 μL of cell culture medium, then 20 μL of MTS working reagent was added. After incubation at 37° C. with 5% CO2 for 2 h, the OD (optical density) value was detected at 490 nm.
# (§4) Control group: the conditions are the same as the above without adding the active ingredient of antitumor agents, and the OD value was detected at 490 nm on the end of the experiment.
# (§5) The cell inhibiting rate of the drugs to tumor cell growth was calculated according to the following formula:
# (§6) 1) Cell viability (%)=OD of treated group/OD of control group×100%
# (§7) 2) The cell viabilities under the different drug concentrations were determined, and then plotted against drug concentration. The IC50 value is the corresponding concentration in the obtained curve when the cell viability was 50%.
# [4] = tested on: H460-human non-small cell lung cancer (large cell carcinoma); assay: MTS cytotoxicity assay (IC50); assay type: cell-based; settings: H460, 96 h, read-out: IC50 value in human tumor cells H460
# Protocol: as §1, §2, §3, §4, §5, §6, §7
# [5] = tested on: HT-29-human colon cancer; assay: MTS cytotoxicity assay (IC50); assay type: cell-based; settings: HT29, 96 h, read-out: IC50 value in human tumor cells HT29
# Protocol: as §1, §2, §3, §4, §5, §6, §7
# [6] = tested on: MCF-7-human breast cancer; assay: MTS cytotoxicity assay (IC50); assay type: cell-based; settings: MCF7, 96 h, read-out: IC50 value in human tumor cells MCF7
# Protocol: as §1, §2, §3, §4, §5, §6, §7
# [7] = tested on: SKOV3-human ovarian carcinoma; assay: MTS cytotoxicity assay (IC50); assay type: cell-based; settings: SKOV3, 96 h, read-out: IC50 value in human tumor cells SKOV3
# Protocol: as §1, §2, §3, §4, §5, §6, §7
# [8] = tested on: du145-human prostate cancer; assay: MTS cytotoxicity assay (IC50); assay type: cell-based; settings: DU145, 96 h, read-out: IC50 value in human tumor cells DU145
# Protocol: as §1, §2, §3, §4, §5, §6, §7
# [9] = 1.25 mg/Kg i.p. day 1 and day 4
molecule,measurement,setting,value
N.N.O=C([O-])C1(C(=O)[O-])CCC1.[Pt+2] [Carboplatin],ILS,[1]; 24 mg/Kg i.p. day 1 and day 4,8%
same,Survived Animals on Day 42,[1]; 24 mg/Kg i.p. day 1 and day 4,0/6
same,Weight Changes,[1]; 24 mg/Kg i.p. day 1 and day 4,+0.6 g
same,ILS,[1]; 40 mg/Kg i.p. day 1 and day 4,22%
same,Survived Animals on Day 42,[1]; 40 mg/Kg i.p. day 1 and day 4,0/6
same,Weight Changes,[1]; 40 mg/Kg i.p. day 1 and day 4,-0.4 g
same,ILS,[1]; 80 mg/Kg i.p. day 1 and day 4,50%
same,Survived Animals on Day 42,[1]; 80 mg/Kg i.p. day 1 and day 4,1/6
same,Weight Changes,[1]; 80 mg/Kg i.p. day 1 and day 4,-1.2 g
same,water solubility,[2],17 mg/mL
N.N.[Cl][Pt][Cl] [Cisplatin],ILS,[1]; [9],20%
same,Survived Animals on Day 42,[1]; [9],0/6
same,ILS,[1]; 2.5 mg/Kg i.p. day 1 and day 4,125%
same,Survived Animals on Day 42,[1]; 2.5 mg/Kg i.p. day 1 and day 4,1/6
same,ILS,[1]; 5.0 mg/Kg i.p. day 1 and day 4,265%
same,Survived Animals on Day 42,[1]; 5.0 mg/Kg i.p. day 1 and day 4,3/6
"cis-[trans-(1R, 2R)-diaminocyclohexane] Pt (II) (1-O-D-glucoside-propane-3-chloro-3,3-dicarboxylate) [Complex 2]",IC50,[3],0.821 µM
same,IC50,[4],22 µM
same,IC50,[5],1.88 µM
same,IC50,[6],2 µM
same,IC50,[7],10 µM
same,IC50,[8],5.19 µM
same,ILS,[1]; 50 mg/Kg i.p. day 1 and day 4,>425%
same,Survived Animals on Day 42,[1]; 50 mg/Kg i.p. day 1 and day 4,6/6
same,Weight Changes,[1]; 50 mg/Kg i.p. day 1 and day 4,+1.1 g
same,ILS,[1]; 100 mg/Kg i.p. day 1 and day 4,>425%
same,Survived Animals on Day 42,[1]; 100 mg/Kg i.p. day 1 and day 4,6/6
same,Weight Changes,[1]; 100 mg/Kg i.p. day 1 and day 4,+0 g
same,ILS,[1]; 200 mg/Kg i.p. day 1 and day 4,>425%
same,Survived Animals on Day 42,[1]; 200 mg/Kg i.p. day 1 and day 4,6/6
same,Weight Changes,[1]; 200 mg/Kg i.p. day 1 and day 4,-0.4 g
